# Results from PubChem BioAssay (NCI).
#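 In this assay, cells in 96-well plates receive the compound at five concentrations for 48 hours. Endpoints are linearly interpolated between the surrounding concentrations. Here, GI50 denotes the concentration required for 50% inhibition of growth. TGI marks complete inhibition of growth.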
# What was measured:
# Test in all cases: inhibition of tumour cell growth, NCI panel, 48 h
# M14 melanoma = test system: M14 melanoma
# KM12 colon = test system: KM12 colon
# HL-60(TB) leukemia = test system: HL-60(TB) leukemia
# UACC-62 melanoma = test system: UACC-62 melanoma
# RPMI-8226 leukemia = test system: RPMI-8226 leukemia
# K-562 leukemia = test system: K-562 leukemia
# HCC-2998 colon = test system: HCC-2998 colon
# NCI/ADR-RES ovarian = test system: NCI/ADR-RES ovarian
# OVCAR-3 ovarian = test system: OVCAR-3 ovarian
# SF-268 CNS = test system: SF-268 CNS
# SK-OV-3 ovarian = test system: SK-OV-3 ovarian
# MALME-3M melanoma = test system: MALME-3M melanoma
# SK-MEL-28 melanoma = test system: SK-MEL-28 melanoma
# SK-MEL-2 melanoma = test system: SK-MEL-2 melanoma
# SF-295 CNS = test system: SF-295 CNS
# MDA-MB-231 breast = test system: MDA-MB-231 breast
# NCI-H226 lung = test system: NCI-H226 lung
# BT-549 breast = test system: BT-549 breast
# 786-0 renal = test system: 786-0 renal
# HCT-15 colon = test system: HCT-15 colon
# ACHN renal = test system: ACHN renal
# PC-3 prostate = test system: PC-3 prostate
# IGROV1 ovarian = test system: IGROV1 ovarian
# OVCAR-5 ovarian = test system: OVCAR-5 ovarian
# TK-10 renal = test system: TK-10 renal
# OVCAR-8 ovarian = test system: OVCAR-8 ovarian
# MOLT-4 leukemia = test system: MOLT-4 leukemia
# A549 NSCLC = test system: A549 NSCLC
# CCRF-CEM leukemia = test system: CCRF-CEM leukemia
# SN12C renal = test system: SN12C renal
# SNB-19 CNS = test system: SNB-19 CNS
# OVCAR-4 ovarian = test system: OVCAR-4 ovarian
# RXF 393 renal = test system: RXF 393 renal
# SNB-75 CNS = test system: SNB-75 CNS
# DU-145 prostate = test system: DU-145 prostate
# U251 CNS = test system: U251 CNS
# A498 renal = test system: A498 renal
# SW-620 colon = test system: SW-620 colon
# NCI-H522 lung = test system: NCI-H522 lung
# UO-31 renal = test system: UO-31 renal
# HOP-92 NSCLC = test system: HOP-92 NSCLC
# HT29 colon = test system: HT29 colon
# NCI-H23 lung = test system: NCI-H23 lung
# SR leukemia = test system: SR leukemia
# HCT-116 colon = test system: HCT-116 colon
# COLO 205 colon = test system: COLO 205 colon
# T-47D breast = test system: T-47D breast
# MDA-MB-435 = test system: MDA-MB-435
# MCF7 breast = test system: MCF7 breast
# LOX IMVI melanoma = test system: LOX IMVI melanoma
# HS 578T breast = test system: HS 578T breast
# SK-MEL-5 melanoma = test system: SK-MEL-5 melanoma
# UACC-257 melanoma = test system: UACC-257 melanoma
# NCI-H460 lung = test system: NCI-H460 lung
# HOP-62 NSCLC = test system: HOP-62 NSCLC
# SF-539 CNS = test system: SF-539 CNS
# EKVX NSCLC = test system: EKVX NSCLC
compound,measurement,setting,value
C=CCCCC(=O)CCC(=O)OCC1O[C@@H](O[C@@H]2C(O)[C@@H](OC(C)=O)C(C)O[C@H]2O[C@H](CC=C)CCCCC)C(O)[C@@H](OC(=O)/C(C)=C/C)[C@@H]1OC(=O)/C=C/c1ccccc1 (some centres not stated),GI50,M14 melanoma,63.3 nM
same,GI50,KM12 colon,142 nM
same,TGI,KM12 colon,> 50000 nM
same,GI50,HL-60(TB) leukemia,673 nM
same,TGI,HL-60(TB) leukemia,3340 nM
same,GI50,UACC-62 melanoma,190 nM
same,TGI,UACC-62 melanoma,5620 nM
same,GI50,RPMI-8226 leukemia,180 nM
same,TGI,RPMI-8226 leukemia,3260 nM
same,GI50,K-562 leukemia,267 nM
same,TGI,K-562 leukemia,> 50000 nM
same,GI50,HCC-2998 colon,1080 nM
same,TGI,HCC-2998 colon,> 50000 nM
same,GI50,NCI/ADR-RES ovarian,1920 nM
same,TGI,NCI/ADR-RES ovarian,> 50000 nM
same,GI50,OVCAR-3 ovarian,290 nM
same,TGI,OVCAR-3 ovarian,> 50000 nM
same,GI50,SF-268 CNS,505 nM
same,TGI,SF-268 CNS,> 50000 nM
same,GI50,SK-OV-3 ovarian,959 nM
same,TGI,SK-OV-3 ovarian,> 50000 nM
same,GI50,MALME-3M melanoma,871 nM
same,TGI,MALME-3M melanoma,> 50000 nM
same,GI50,SK-MEL-28 melanoma,340 nM
same,TGI,SK-MEL-28 melanoma,> 50000 nM
same,GI50,SK-MEL-2 melanoma,609 nM
same,TGI,SK-MEL-2 melanoma,> 14700 nM
same,GI50,SF-295 CNS,14.4 nM
same,TGI,SF-295 CNS,5510 nM
same,GI50,MDA-MB-231 breast,8.66 nM
same,TGI,MDA-MB-231 breast,30.9 nM
same,GI50,NCI-H226 lung,564 nM
same,TGI,NCI-H226 lung,> 50000 nM
same,GI50,BT-549 breast,345 nM
same,TGI,BT-549 breast,> 50000 nM
same,GI50,786-0 renal,316 nM
same,TGI,786-0 renal,> 50000 nM
same,GI50,HCT-15 colon,263 nM
same,TGI,HCT-15 colon,> 50000 nM
same,GI50,ACHN renal,151 nM
same,TGI,ACHN renal,> 50000 nM
same,GI50,PC-3 prostate,198 nM
same,TGI,PC-3 prostate,> 50000 nM
same,GI50,IGROV1 ovarian,280 nM
same,TGI,IGROV1 ovarian,> 50000 nM
same,GI50,OVCAR-5 ovarian,1440 nM
same,TGI,OVCAR-5 ovarian,> 50000 nM
same,GI50,TK-10 renal,106 nM
same,TGI,TK-10 renal,> 50000 nM
same,GI50,OVCAR-8 ovarian,173 nM
same,TGI,OVCAR-8 ovarian,> 50000 nM
same,GI50,MOLT-4 leukemia,2090 nM
same,TGI,MOLT-4 leukemia,> 50000 nM
same,GI50,A549 NSCLC,34.5 nM
same,TGI,A549 NSCLC,> 50000 nM
same,GI50,CCRF-CEM leukemia,551 nM
same,TGI,CCRF-CEM leukemia,> 50000 nM
same,GI50,SN12C renal,88.1 nM
same,TGI,SN12C renal,2110 nM
same,GI50,SNB-19 CNS,518 nM
same,TGI,SNB-19 CNS,> 50000 nM
same,GI50,OVCAR-4 ovarian,2290 nM
same,TGI,OVCAR-4 ovarian,> 50000 nM
same,GI50,RXF 393 renal,76.6 nM
same,TGI,RXF 393 renal,> 50000 nM
same,GI50,SNB-75 CNS,13.3 nM
same,TGI,SNB-75 CNS,> 28000 nM
same,GI50,DU-145 prostate,292 nM
same,TGI,DU-145 prostate,> 50000 nM
same,GI50,U251 CNS,29.7 nM
same,TGI,U251 CNS,> 50000 nM
same,GI50,A498 renal,612 nM
same,TGI,A498 renal,> 50000 nM
same,GI50,SW-620 colon,122 nM
same,TGI,SW-620 colon,> 50000 nM
same,GI50,NCI-H522 lung,248 nM
same,TGI,NCI-H522 lung,> 50000 nM
same,GI50,UO-31 renal,33 nM
same,TGI,UO-31 renal,> 50000 nM
same,GI50,HOP-92 NSCLC,38.4 nM
same,GI50,HT29 colon,25.1 nM
same,TGI,HT29 colon,3060 nM
same,GI50,NCI-H23 lung,995 nM
same,TGI,NCI-H23 lung,> 50000 nM
same,GI50,SR leukemia,142 nM
same,TGI,SR leukemia,1830 nM
same,GI50,HCT-116 colon,26.2 nM
same,TGI,HCT-116 colon,> 50000 nM
same,GI50,COLO 205 colon,88 nM
same,TGI,COLO 205 colon,1550 nM
same,GI50,T-47D breast,27.3 nM
same,TGI,T-47D breast,1210 nM
same,GI50,MDA-MB-435,21.6 nM
same,TGI,MDA-MB-435,> 50000 nM
same,GI50,MCF7 breast,31.6 nM
same,TGI,MCF7 breast,> 50000 nM
same,GI50,LOX IMVI melanoma,27.5 nM
same,TGI,LOX IMVI melanoma,127 nM
same,GI50,HS 578T breast,131 nM
same,TGI,HS 578T breast,> 50000 nM
same,GI50,SK-MEL-5 melanoma,35.2 nM
same,TGI,SK-MEL-5 melanoma,517 nM
same,GI50,UACC-257 melanoma,79.1 nM
same,TGI,UACC-257 melanoma,8110 nM
same,GI50,NCI-H460 lung,65.6 nM
same,TGI,NCI-H460 lung,> 50000 nM
same,GI50,HOP-62 NSCLC,235 nM
same,TGI,HOP-62 NSCLC,> 50000 nM
same,GI50,SF-539 CNS,54.6 nM
same,TGI,SF-539 CNS,12300 nM
same,GI50,EKVX NSCLC,428 nM
same,TGI,EKVX NSCLC,> 50000 nM
